From the NIST ThermoML archive (doi:10.1021/je100341q)
± gives the expanded uncertainty stated by the source.

Tests used:
[1] = refractive index (Na D-line) (dimensionless); details: 293.15 K; 101.33 kPa; Liquid; Standard Abbe refractometry
[2] = for mass density: 293.15 K, 101.33 kPa, Liquid, Pycnometric method; for Normal melting temperature: Crystal, DTA
[3] = Molar enthalpy of transition or fusion; details: Crystal; DSC

CC(=O)O [acetic acid]
refractive index [1]: 1.3716 ± 0.0007 | mass density [2]: 1049 ± 1 kg/m3

CCC(C)=O [butanone]
refractive index [1]: 1.3788 | mass density [2]: 805 ± 1 kg/m3

O=P(O)(CO)c1ccccc1 [(hydroxymethyl)(phenyl)phosphinic acid]
Molar enthalpy of transition or fusion [3]: 6.49 ± 0.196 kcal/mol | Normal melting temperature [2]: 140.2 ± 0.5 °C

CC#N [acetonitrile]
refractive index [1]: 1.343 ± 0.0007 | mass density [2]: 783 ± 1 kg/m3

COc1ccc(P(=O)(c2ccc(OC)cc2)c2ccc(OC)cc2)cc1 [tris(4-methoxyphenyl)phosphine oxide]
Molar enthalpy of transition or fusion [3]: 6.82 ± 0.194 kcal/mol | Normal melting temperature [2]: 144.69 ± 0.5 °C

CCOCCO [2-ethoxyethan-1-ol]
refractive index [1]: 1.4065 ± 0.0007 | mass density [2]: 929 ± 1 kg/m3

O=P1(O)OCC2(CO1)COP(=O)(O)OC2 (stereo not given)
Molar enthalpy of transition or fusion [3]: 5.37 ± 0.17 kcal/mol | Normal melting temperature [2]: 310.57 ± 0.5 °C

c1ccccc1 [benzene]
refractive index [1]: 1.5011 ± 0.0007 | mass density [2]: 879 ± 1 kg/m3

CCO [ethanol]
refractive index [1]: 1.366 ± 0.0007 | mass density [2]: 790 ± 1 kg/m3

C1COCCO1 [1,4-dioxane]
refractive index [1]: 1.4175 ± 0.0008 | mass density [2]: 1034 ± 1 kg/m3

CCOC(C)=O [ethyl acetate]
refractive index [1]: 1.3719 ± 0.0007 | mass density [2]: 899 ± 1 kg/m3

ClCCl [dichloromethane]
refractive index [1]: 1.4237 ± 0.0007 | mass density [2]: 1321 ± 1 kg/m3

C1CCCCC1 [cyclohexane]
refractive index [1]: 1.4266 ± 0.0007 | mass density [2]: 779 ± 1 kg/m3

CO [methanol]
refractive index [1]: 1.3301 ± 0.0007 | mass density [2]: 792 ± 1 kg/m3

C1CCOC1 [tetrahydrofuran]
refractive index [1]: 1.405 ± 0.0008

O=P1(Oc2ccccc2)OCC2(CO1)COP(=O)(Oc1ccccc1)OC2 (stereo not given)
Molar enthalpy of transition or fusion [3]: 8.71 ± 0.239 kcal/mol | Normal melting temperature [2]: 196.43 ± 0.5 °C

CC(C)=O [acetone]
refractive index [1]: 1.359 ± 0.0007 | mass density [2]: 790 ± 1 kg/m3

ClC(Cl)Cl [trichloromethane]
refractive index [1]: 1.4476 ± 0.0007 | mass density [2]: 1484 ± 2 kg/m3

O=C(O)CCP(=O)(O)c1ccccc1 [3-(hydroxy(phenyl)phosphoryl)propanoic acid]
Molar enthalpy of transition or fusion [3]: 8.03 ± 0.232 kcal/mol | Normal melting temperature [2]: 159.51 ± 0.5 °C

Cc1ccccc1 [toluene]
refractive index [1]: 1.4967 ± 0.0007 | mass density [2]: 866 ± 1 kg/m3

COc1ccc(P(c2ccc(OC)cc2)c2ccc(OC)cc2)cc1 [tris(4-methoxyphenyl)phosphane]
Molar enthalpy of transition or fusion [3]: 6.14 ± 0.186 kcal/mol | Normal melting temperature [2]: 130.67 ± 0.5 °C

c1ccncc1 [pyridine]
refractive index [1]: 1.5095 ± 0.0007 | mass density [2]: 983 ± 1 kg/m3

CCOCC [diethyl ether]
refractive index [1]: 1.3497 ± 0.0007 | mass density [2]: 714 ± 1 kg/m3
